Measured values from a melting point compilation (Tetko et al.; mined from patent text by program, amines drawn as free bases though some values may be those of a salt).

Row | Structure (SMILES) | melting point [°C]
1 | Cc1ccc(N2C(=O)C=CC2=O)cc1N1C(=O)C=CC1=O | 168 to 172
2 | OC1Cc2cc(I)ccc2Sc2ccccc21 (stereo not given) | 131 to 133
3 | CCCCCCCCCC(CCC)CC(C)CC(O)c1cc(O)ccc1O (stereo not given) | 123
4 | Cn1cc(-c2cncc(OC3SCC(O)C(O)C3O)c2)cn1 (stereo not given) | 216
5 | CN1C(=O)C(N)C(=O)N(C23CC4CC(CC(C4)C2)C3)c2ccccc21 (stereo not given) | 194
6 | Cc1nc(N)c2nc(CO)n(NC3CCC3)c2c1C | 211 to 213
7 | Cc1cc(-c2noc(C3CC3)n2)cc(C)c1OCCCc1cc(CO)no1 | 80 to 81
8 | Cc1cccc(NC(=O)NC2N=C(N3CCCCCC3)c3ccccc3N(C)C2=O)c1 (single isomer, unassigned; (+)) | 172 to 175
9 | NC(=O)N(O)Cc1sccc1Br | 138 to 140
10 | CS(=O)(=O)c1cccc(NC(=O)c2cnn3c(C4CC4)cc(-c4ccc(C(F)(F)F)cc4)nc23)c1 | 231 to 234
11 | O=Cc1c(-c2ccc(Cl)cc2)sc2ccccc12 | 99.7 to 101
12 | O=C1NCCc2ccc(OCCCCN3CCN(c4cccc5c4OCCCO5)CC3)nc2N1 | 78 to 79
13 | CC(=O)N1CCC(CC(=O)c2ccc(Nc3ncnc4c3CCC4)cc2)CC1 | 225 to 227
14 | Cc1ccccc1N1CCN(CCn2c(=O)[nH]c3ccsc3c2=O)CC1 | 212 to 214
15 | O=C(O)CCCCCCn1c(-c2ccccc2)nc(-c2ccccc2)c1-c1ccccc1 | 149 to 150
16 | O=C(NCCCCCCNC(=O)Nc1cccnc1)Nc1cccnc1 | 197 to 199
17 | CC1=C(C(=O)OCCC#N)C(c2cccc([N+](=O)[O-])c2)C(C(=O)OCCCN2CCC(c3ccccc3)(c3ccccc3)CC2)=C(C)N1 (stereo not given) | 158 to 160
18 | OCc1ccc(-c2cn(Cc3ccccc3)c3ccccc23)cc1 | 122
19 | COC(=O)[C@@H](Cc1ccccc1)Oc1c(Br)cc(-c2c3ccccc3c(Br)c3sc4ccccc4c23)cc1Br | 138 to 140
20 | Cc1cc(-c2cc(C(F)(F)F)n3cnc(-c4ccncc4)c3n2)ccc1C(F)(F)F | 225
21 | CC(C)(C)OC(=O)N1CCN(c2nsc3ccccc23)CC1 | 105 to 107
22 | CC1=C(C#N)C(=C(C#N)C#N)OC1(C)c1ccc(Cl)cc1Cl (stereo not given) | 239 to 240
23 | CC1=C(C(=O)O)CCc2ccccc21 | 127

Row | Structure (SMILES) | melting point [°C]
24 | c1ccc(C2(Cc3ccncc3)c3ccccc3-c3sccc32)cc1 (stereo not given) | 88 to 92
25 | CC(C)(C)OC(=O)COc1cc(NC(=O)OC(C)(C)C)c([N+](=O)[O-])cc1I | 103
26 | CCC(CC)c1ccc(Cl)c2nc3n(c12)CCCCN3c1ccc(N(C)C)cc1OC(F)(F)F | 158 to 159
27 | Nc1sc(-c2ccncc2)c(CN(C2CCCCC2)C2CCCCC2)c1C(=O)c1ccc(Cl)cc1 | 214 to 216
28 | c1ccn2c(=Nc3nccs3)snc2c1 | 169 to 171
29 | CC(=O)N1CCc2cc(O)ccc2C1 | 135 to 136
30 | COc1cc(C(F)(F)F)nc2c(Cl)ccc(F)c12 | 198 to 200
31 | Clc1cccc(-c2cc(OCC3CO3)no2)c1 (stereo not given) | 86 to 87
32 | Clc1ccc2c(c1)C(c1ccccc1)=NCc1nnc(COC(c3ccccc3)c3ccccc3)n1-2 | 202 to 203
33 | CCCOc1cc(C(=O)CCC(=O)O)ccc1OCC | 116 to 117
34 | Cc1nnc(-c2cn3c4c(cccc24)CCC3)o1 | 70 to 72
35 | Cc1ccccc1-c1c(NC(=O)Nc2ccc(F)cc2F)cnc2cc3c(cc12)CCC3 | 252 to 254
36 | COc1cc2c(cc1O)C(C)(C)CC2 | 43.5 to 44.5
37 | CNc1nc(C)c(-c2ccncc2)s1 | 155 to 156
38 | CCOC(=O)ON(C(=O)NC)c1cc(Cl)ccc1Cl | 130 to 132
39 | CC(O)CCCCn1cnc2c1c(=O)n(C)c(=O)n2C (stereo not given) | 93 to 94
40 | CCn1nc2c(N)nc3c(c2c1CC(C)C)CCCC3 | 206 to 207
41 | O=C(O)c1cc(F)ccc1Nc1ccnc2cc(Cl)ccc12 | 341 to 342
42 | Cc1cn(Nc2ccncc2F)c2ccccc12 | 45
43 | COC(=O)c1cc([N+](=O)[O-])c(N2CCSC2=N)c([N+](=O)[O-])c1 | 138
44 | CCN(CCO)Cc1cc(Nc2nc(Nc3cc4c(cc3OC)CCN(CC(=O)N(C)C)CC4)ncc2Cl)ccc1F | 71 to 75
45 | N#Cc1cc(-c2c3ccccc3cc3sc4ccccc4c23)ccc1O | 231 to 232
46 | O=c1n(Cc2ccccc2)nc2n1C=Cc1ccccc1C2 | 133 to 134

Row | Structure (SMILES) | melting point [°C]
47 | COc1nc2cc(Cl)c(Cl)c(N(S(C)(=O)=O)S(C)(=O)=O)c2nc1OC | 240 to 244
48 | CCCCCCCCCCCCCCCCCCNC(=O)NCCCCCCCCN | 120 to 145
49 | COC(=O)CCc1c(C(C)C)cc(C(C)C)cc1C(C)C | 45 to 47
50 | Cc1cc(O)c(C)c(Br)c1C | 86 to 88
51 | N#Cc1c(-c2cccc(F)c2)c(Cl)n2c1CNCC2 | 104 to 106
52 | C=Cc1cc(C(C)NC(=O)Nc2ccc(C(C)(C)C)cc2)ccc1NS(=O)(=O)C=C (stereo not given) | 60 to 62
53 | CCOC(=O)c1c(COc2nccn2C)nc2cc(OC)c(OC)cc2c1-c1ccc(OC)c(OC)c1 | 151 to 152
54 | CC(C)(C)COc1c(-c2ccc(S(C)(=O)=O)cc2)cnn(-c2cccc(Cl)c2)c1=O | 151 to 153
55 | NC(=O)NN=C1c2ncc(Cl)cc2C=CC1Cl (stereo not given) | > 280
56 | C[C@H](Cc1ccc(-c2cc(F)cc(F)c2)cc1)c1ccccc1 | 49.8 to 51.3
57 | CCOCc1nc2c(N)nc3ccccc3c2n1CC1(OCCS(C)(=O)=O)CCNCC1 | 212 to 214
58 | CC(=O)c1ccc(-c2ccc(C(=O)Nc3ccc4cc(CN5CCCC5)cnc4c3C)cc2)s1 | 194 to 195
59 | Cc1cc(C(C)(C)C)c(O)c(S(=O)(=O)Nc2ccc([N+](=O)[O-])cc2Cl)c1 | 239 to 243
60 | CC(=O)O[C@H]1[C@H]([C@H](Cc2ccccc2)NC(=O)OCc2ccccc2)OC(=O)N[C@H]1Cc1ccccc1 | 140 to 142
61 | O=C(O)CCC/C=C\[C@@H]1C[C@@H](NS(=O)(=O)c2ccc(Cl)cc2)CN1Cc1ccccc1 | 87 to 91
62 | CCOc1cc(CN2C(=O)c3ccccc3C2=O)c2c(c1)Oc1c(ccc(OCC)c1CO[Si](C)(C)C(C)(C)C)N2CC | 158 to 159
63 | Cc1c2c(nc3ccccc13)CCN(C(=O)C(C)C)CC2 | 107
64 | CS(=O)(=O)OCCC1(CCOS(C)(=O)=O)c2ccccc2Oc2ccccc21 | 121 to 122
65 | O=C1NC(=S)C(c2cccc(Cl)c2)C1c1ccccc1 (stereo not given) | 104 to 106
66 | O=c1[nH]sc2c1c(=O)c1cc(F)c(F)c(F)c1n2C1CC1 | 243 to 245
67 | O=C(c1ccccc1)c1cc(C(F)(F)F)ccc1NC=C[N+](=O)[O-] | 196 to 198
68 | Nc1cc(OCCC2CCCCC2)nc(N)n1 | 142
69 | CN1N=C2c3cc(F)ccc3SCC2CC1=O (stereo not given) | 125 to 128

Other lines, results leading:

Row | melting point [°C] | Structure (SMILES)
70 | 108 to 111 | CN(C)C=C(SCCN1C(=O)c2ccccc2C1=O)C(=O)c1ccc(F)cc1
71 | 91 to 94 | CCOC(=O)C1=C(C)Nc2ccnc(OCC)c2C1c1ccccc1C(F)(F)F (stereo not given)
72 | 93 to 94 | COC(=O)CCc1ccc(NC(=O)c2cc(C(C)C)c(C(C)C)o2)cc1
73 | 173 to 175 | COC(=O)c1nc(-c2ccc(Cl)c(OC)c2F)nc(N)c1Br
74 | 112 | COc1ccc2[nH]cc(Cc3cccnc3)c2c1
75 | 140 to 141 | CC(C)COC(=O)Nc1cccc(-c2ccnc3c(-c4cccs4)cnn23)c1
76 | 142 to 143 | CC(=O)Nc1nc(OS(=O)(=O)c2ccccc2)ncc1F
77 | 211 to 213 | CC(=O)Nc1ccc2c(c1)cc(C(=O)c1ccc(C)cc1)n2C
78 | 171 to 182 | CCc1ccc(-c2cc3ncnc(Nc4ccc5[nH]ccc5c4)c3s2)cc1
79 | 138 to 139 | O=C(CO[C@H]1NC(=O)[C@@H]1NC(=O)c1ccccc1)CC(=O)OCc1ccc([N+](=O)[O-])cc1
80 | 76 to 77 | CCOC(=O)Cc1ccc([N+](=O)[O-])c(OCC(F)(F)F)c1
81 | 189 | CCNC(=O)N1c2ccccc2-c2noc3c2C1CCC3 (stereo not given)
82 | 133 to 135 | COc1ccc2c(=O)cc(SC)sc2c1
83 | 172 | COc1ccc(-c2nc(-c3ccc(OCCO)cc3O)nc(-c3ccc(OCCO)cc3OCCO)n2)cc1
84 | 76.8 to 77.7 | CCCCc1c(-c2cc(C)c(OC)c(C)c2)[nH]c2ccccc12
85 | 110 to 111 | Oc1cccc(CCCn2ccnc2)c1

Row | melting point [°C] | Structure (SMILES)
86 | 199 to 201 | Cc1ccc(S(=O)(=O)NCCc2cccc(OCC(=O)Nc3nnn[nH]3)c2)cc1
87 | 132 to 133 | COc1ccc(-c2cc(=O)n(CC3CC3)nc2-c2ccc(OC)c(F)c2)cc1
88 | > 200 | C=C(C)C=COc1ccc(C(=O)C=Cc2ccc(OCC(=O)O)c(OC)c2)c(OCC(=O)O)c1
89 | 218 to 219 | COc1ccc(CCc2nc(C(N)=O)c[nH]2)cc1
90 | 64.5 to 65 | OC(c1ccc(Cl)cc1)c1cccc(Br)n1 (stereo not given)
91 | 147 to 152 | CC(=O)NNc1nc(C(F)(F)F)nc(-c2ccc(C)cc2)c1-c1ccccc1
92 | 174 to 176 | Cc1cc(OCc2sc(-c3ccc(C(F)(F)F)cc3)nc2C)ccc1OCC(=O)O
93 | 50 to 55 | COC(=O)c1cc(CCc2cc(OC)ccc2OC)ccc1N
94 | 260 to 261 | COc1cc(CCC(=O)Nc2nc3ccccc3s2)ccc1C(=O)/C=C/C(=O)O
95 | 193 to 195 | COc1ccc(C(=O)NCc2cccc3c2C(=O)N(C2CCC(=O)NC2=O)C3=O)cc1 (stereo not given)
96 | 190 to 193 | Nc1nc(NCCc2cccc(O)c2)nc2nc(-c3ccco3)nn12
97 | 166 | COC(=O)[C@@H]1C(=O)NC[C@H]1c1ccc(Cl)cc1
98 | 209 to 218 | O=C(O)c1ccc(F)cc1Sc1ccc(F)cc1
99 | 133 to 134 | Cc1cc(-c2cc(CN3CCN(C)CC3)c(=O)n(Cc3ccc(Cl)cc3)n2)ccc1F
100 | 204 to 206 | CCCCc1ncc(/C=C(\Cc2cccs2)C(N)=O)n1Cc1ccc(C(N)=O)cc1
